# Data reported in patent US8664257B2, “Oxygen-substituted 3-heteroaroylamino-propionic acid derivatives and their use as pharmaceuticals” (Sanofi, priority 2010, dated 2014).
# Like-named read-outs stand apart in the source and are kept apart here.
# Molecular target: T1, Recombinant human cathepsin A (Homo sapiens, UniProt P10619)
# T1 construct: Recombinant human cathepsin A (residues 29-480, with a C-terminal 10-His tag); 10-His (C); purchased R&D Systems 1049-SE
# T1 sequence (P10619 29-312 limits assumed): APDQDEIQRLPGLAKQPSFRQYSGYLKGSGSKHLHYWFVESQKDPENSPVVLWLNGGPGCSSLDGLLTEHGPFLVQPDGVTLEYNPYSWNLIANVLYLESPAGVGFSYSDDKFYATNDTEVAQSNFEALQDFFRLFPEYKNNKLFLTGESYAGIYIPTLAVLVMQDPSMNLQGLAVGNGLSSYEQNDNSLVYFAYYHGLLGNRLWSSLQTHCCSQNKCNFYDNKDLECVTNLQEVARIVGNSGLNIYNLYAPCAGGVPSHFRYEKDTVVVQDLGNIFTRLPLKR
# T1 sequence (P10619 327-480 limits assumed): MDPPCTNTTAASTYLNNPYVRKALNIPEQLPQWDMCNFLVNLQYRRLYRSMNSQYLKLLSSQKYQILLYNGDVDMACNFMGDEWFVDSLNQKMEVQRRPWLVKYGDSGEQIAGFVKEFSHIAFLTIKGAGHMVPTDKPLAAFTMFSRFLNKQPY
# Assay: Cathepsin A inhibitory activity
# Format: biochemical
# Procedure, shortened: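 Read-out was microfluidic separation of cleaved vs. uncleaved Bodipy FL-bradykinin (2 μM), giving turnover, % inhibition and IC50. Compound and 833 ng/ml enzyme met for 15 min RT in pH 5.5 MES/DTT before substrate (15 min RT). The 29-480 His-tagged human enzyme was first activated by cathepsin L, then E-64 (10 μM).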
# [1] = read-out: Activity (2): Cathepsin A inhibitory activity, IC50 class
# [2] = read-out: Activity (2): Cathepsin A inhibitory activity (IC50 class)
# [3] = recombinant human cathepsin A 833 ng/ml, Bodipy FL-labeled bradykinin 2 μM, pH 5.5, read-out: CATH-A IC50
# [4] = recombinant human cathepsin A, read-out: Activity (2): Cathepsin A inhibitory activity, IC50 class
SMILES,IC50 [1] [nM],IC50 [4] [nM],further results
O=C(O)C[C@H](NC(=O)c1cc(O)n(-c2ccc(F)cc2)n1)c1ccccc1Br [Example 339],100 to 1000,,
CCOc1cc(C(=O)N[C@@H](CC(=O)O)c2ccc(Cl)cc2)nn1-c1ccccc1Cl [Example 733],,,IC50 [2]: < 100 nM
"COc1ccccc1[C@H](CC(=O)O)NC(=O)c1cc(OC[C@@](C)(O)C(C)(C)C)n(-c2ccccc2F)n1 [Example 810, (S)-3-{[1-(2-Fluoro-phenyl)-5-((S)-2-hydroxy-2,3,3-trimethyl-butoxy)-1H-pyrazole-3-carbonyl]-amino}-3-(2-methoxy-phenyl)-propionic acid]",< 100,,
"O=C(O)CC(NC(=O)c1cc(O)n(-c2ccccc2Cl)n1)c1cc(F)ccc1Cl (centres unmarked) [Example 458, 3-(2-Chloro-5-fluoro-phenyl)-3-{[1-(2-chloro-phenyl)-5-hydroxy-1H-pyrazole-3-carbonyl]-amino}-propionic acid]",,100 to 1000,IC50 [3]: 223 nM
O=C(O)C[C@H](NC(=O)c1cc(O)n(-c2ccccc2Cl)n1)c1ccc(Cl)cc1 [Example 109],100 to 1000,,
"CC(C)(C)[C@](C)(O)COc1cc(C(=O)N[C@@H](CC(=O)O)c2ccccc2C(F)(F)F)nn1-c1ccccc1F [Example 799, (S)-3-{[1-(2-Fluoro-phenyl)-5-((S)-2-hydroxy-2,3,3-trimethyl-butoxy)-1H-pyrazole-3-carbonyl]-amino}-3-(2-trifluoromethyl-phenyl)-propionic acid]",< 100,,
Cc1ccccc1[C@H](CC(=O)O)NC(=O)c1cc(O)n(-c2cccc(F)c2)n1 [Example 74],< 100,,
"COc1ccc(F)cc1C(CC(=O)O)NC(=O)c1cc(O)n(-c2ccc(F)cc2F)n1 (centres unmarked) [Example 453, 3-{[1-(2,4-Difluoro-phenyl)-5-hydroxy-1H-pyrazole-3-carbonyl]-amino}-3-(5-fluoro-2-methoxy-phenyl)-propionic acid]",,100 to 1000,IC50 [3]: 249 nM
O=C(O)C[C@H](NC(=O)c1cc(O)n(-c2cccc(F)c2)n1)c1ccccc1F [Example 433],,100 to 1000,
COc1ccccc1[C@@H](NC(=O)c1cc(O)n(-c2cccc(F)c2)n1)[C@@H](O)C(=O)O [Example 316],1000 to 30000,,
O=C(O)CC(NC(=O)c1cc(O)n(-c2ccccc2)n1)c1cccc(F)c1 (centres unmarked) [Example 63],1000 to 30000,,
COc1ccc([C@H](CC(=O)O)NC(=O)c2cc(O)n(-c3ccccc3F)n2)cc1 [Example 398],100 to 1000,,
O=C(O)CC(NC(=O)c1cc(O)n(-c2ccccc2)n1)c1ccc(-n2cccn2)cc1 (centres unmarked) [Example 578],,,IC50 [2]: 1000 to 30000 nM
Cc1ccccc1[C@H](CC(=O)O)NC(=O)c1cc(OCC2CC2(F)F)n(-c2ccccc2F)n1 (some centres unmarked) [Example 645],,,IC50 [2]: < 100 nM
COc1ccc(C(CC(=O)O)NC(=O)c2cc(O)n(-c3cccc(Cl)c3)n2)c(C)c1 (centres unmarked) [Example 250],,,"IC50 (pharmacological test ""Cathepsin A inhibitory activity"", IC50 given as class A/B/C, read-out: Activity (2): Cathepsin A inhibitory activity, IC50 class): 100 to 1000 nM"
CCOc1cc(C(=O)N[C@@H](CC(=O)O)c2ccccc2OC)nn1-c1ccccc1Cl [Example 729],,,IC50 [2]: 100 to 1000 nM
"Cc1c(F)cccc1C(CC(=O)O)NC(=O)c1cc(O)n(-c2ccc(F)cc2F)n1 (centres unmarked) [Example 447, 3-{[1-(2,4-Difluoro-phenyl)-5-hydroxy-1H-pyrazole-3-carbonyl]-amino}-3-(3-fluoro-2-methyl-phenyl)-propionic acid]",,100 to 1000,IC50 [3]: 114 nM

# Further lines, with some results ahead:
IC50 [1] [nM],IC50 [4] [nM],SMILES,further results
,100 to 1000,"O=C(O)C[C@H](NC(=O)c1cc(O)n(-c2ccc(Cl)cc2)n1)c1ccccc1Cl [Example 474, (S)-3-(2-Chloro-phenyl)-3-{[1-(4-chloro-phenyl)-5-hydroxy-1H-pyrazole-3-carbonyl]-amino}-propionic acid]",IC50 [3]: 207 nM
,1000 to 30000,"COc1cc(C(=O)N[C@@H](CC(=O)NCC(C)(C)CO)c2ccccc2C)nn1-c1ccccc1F [Example 925, 1-(2-Fluoro-phenyl)-5-methoxy-1H-pyrazole-3-carboxylic acid [(S)-2-(3-hydroxy-2,2-dimethyl-propylcarbamoyl)-1-o-tolyl-ethyl]-amide]",
